Data published in patent US8461107B2 (Merck Sharp & Dohme Corp., priority 2008, dated 2013).

Molecular target: T1, HCV genotype 1b (BK) NS3 modified with a R155K mutation (Hepatitis C virus genotype 1b, UniProt P26663, R1181K)
T1 construct: HCV genotype 1b (BK) NS3 modified with a R155K mutation
Test: HCV NS3 protease time-resolved fluorescence (TRF) assay, NS3 protease 1b R155K Ki activity
Type: biochemical
Details: HCV genotype 1b (BK) NS3 with R155K mutation; TRF peptide substrate 100 nM; Ki derived from IC50
Method: The HCV NS3 protease inhibitory activity of the present compounds may be tested using assays known in the art. One such assay is HCV NS3 protease time-resolved fluorescence (TRF) assay as described below and in International Patent Application Publication WO 2006/102087. Other examples of such assays are described in e.g., International Patent Application Publication WO 2005/046712.
A NS3 protease assay can be performed, for example, in a final volume of 100 μl assay buffer containing 50 mM HEPES, pH 7.5, 150 mM NaCl, 15% glycerol, 0.15% TRITON X-100, 10 mM DTT, and 0.1% PEG 8000. NS3 and NS4A protease is pre-incubated with various concentrations of inhibitors in DMSO for 30 minutes. The reaction is initiated by adding the TRF peptide substrate (final concentration 100 nM). NS3 mediated hydrolysis of the substrate is quenched after 1 hour at room temperature with 100 μl of 500 mM MES, pH 5.5. Product fluorescence is detected using either a VICTOR V2 or FUSION fluorophotometer (Perkin Elmer Life and Analytical Sciences) with excitation at 340 nm and emission at 615 nm with a 400 μs delay. Testing concentrations of different enzyme forms are selected to result in a signal to background ratio (S/B) of 10-30. IC50 values are derived using a standard four-parameter fit to the data. Ki values are derived from IC50 values using the following formula, IC50=Ki(1+[S]/KM), Eqn (1), where [S] is the concentration of substrate peptide in the reaction and KM is the Michaelis constant. See P. Gallinari et al., 38 BIOCHEM. 5620-32 (1999); P. Gallinari et al., 72 J. VIROL. 6758-69 (1998); M. Taliani et al., 240 ANAL. BIOCHEM. 60-67 (1996).
The HCV NS3 protease inhibitory activity was measured using the protease time-resolved fluorescence (TRF) assay as described below and in International Patent Application Publication WO 2006/102087. The assay was performed with HCV genotype 1b (BK) NS3 modified with a R155K mutation.
The assay was performed in a final volume of 100 μl in assay buffer containing 50 mM HEPES, pH 7.5, 150 mM NaCl, 15% glycerol, 0.15% TRITON X-100, 10 mM DTT, and 0.1% PEG 8000. NS3 and NS4A protease is pre-incubated with various concentrations of inhibitors in DMSO for 30 minutes. The reaction is initiated by adding the TRF peptide substrate (final concentration 100 nM). NS3 mediated hydrolysis of the substrate is quenched after 1 hour at room temperature with 100 μl of 500 mM MES, pH 5.5. Product fluorescence is detected using either a VICTOR V2 or FUSION fluorophotometer (Perkin Elmer Life and Analytical Sciences) with excitation at 340 nm and emission at 615 nm with a 400 μs delay. Testing concentrations of the enzyme containing the R155K mutation were selected to result in a signal to background ratio (S/B) of 10-30. IC50 values are derived using a standard four-parameter fit to the data. Ki values are derived from IC50 values using the following formula, IC50=Ki(1+[S]/KM), Eqn (1), where [S] is the concentration of substrate peptide in the reaction and KM is the Michaelis constant. See P. Gallinari et al., 38 BIOCHEM. 5620-32 (1999); P. Gallinari et al., 72 J. VIROL. 6758-69 (1998); M. Taliani et al., 240 ANAL. BIOCHEM. 60-67 (1996).

CC[C@@H]1C[C@]1(NC(=O)[C@@H]1C[C@@H]2CN1C(=O)[C@H](C1CCCC1)NC(=O)O[C@@H]1CCC[C@H]1CC/C=C/Cc1c(nc3cc(OC)ccn3c1=O)O2)C(=O)NS(=O)(=O)C1CC1 [(3aR,7S,10S,12R,22E,25aS)-7-cyclopentyl-N-((1R,2R)-1-{[(cyclopropylsulfonyl)amino]carbonyl}-2-ethylcyclopropyl)-16-methoxy-5,8,20-trioxo-1,2,3,3a,5,6,7,8,11,12,21,24,25,25a-tetradecahydro-10H,20H-9,12-methanocyclopenta[r]pyrido[1′,2′:1,2]pyrimido[4,5-k][1,10,3,6]dioxadiazacyclononadecine-10-carboxamide] gave a Ki of 0.1 to 0.5 nM.

Compound CC[C@@H]1C[C@]1(NC(=O)[C@@H]1C[C@@H]2CN1C(=O)[C@H](C1CCCC1)NC(=O)O[C@@H]1CCC[C@H]1CC/C=C/Cn1c(nc3cccc(OC)c3c1=O)O2)C(=O)NS(=O)(=O)C1CC1 [(3aR,7S,10S,12R,22E,25aS)-7-cyclopentyl-N-((1R,2R)-1-{[(cyclopropylsulfonyl)amino]carbonyl}-2-ethylcyclopropyl)-18-methoxy-5,8,19-trioxo-1,2,3,3a,5,6,7,8,11,12,21,24,25,25a-tetradecahydro-10H,19H-9,12-methanocyclopenta[18,19][1,10,3,6,12]dioxatriazacyclononadecino[11,12-b]quinazoline-10-carboxamide] has a Ki of 0.1 to 0.5 nM.

With C=C[C@@H]1C[C@]1(NC(=O)[C@@H]1C[C@@H]2CN1C(=O)[C@H](C1CCCC1)NC(=O)O[C@@H]1CCC[C@H]1CC/C=C/Cn1c(nc3ccccc3c1=O)O2)C(=O)NS(=O)(=O)C1CC1 [(3aR,7S,10S,12R,22E,25aS)-7-cyclopentyl-N-((1R,2S)-1-{[(cyclopropylsulfonyl)amino]carbonyl}-2-vinylcyclopropyl)-5,8,19-trioxo-1,2,3,3a,5,6,7,8,11,12,21,24,25,25a-tetradecahydro-10H,19H-9,12-methanocyclopenta[18,19][1,10,3,6,12]dioxatriazacyclononadecino[11,12-b]quinazoline-10-carboxamide] the Ki was under 0.1 nM.

Work on C=C[C@@H]1C[C@]1(NC(=O)[C@@H]1C[C@@H]2CN1C(=O)[C@H](C1CCCC1)NC(=O)O[C@@H]1CCC[C@H]1CC/C=C/Cn1c(nc3cc(C(F)(F)F)ccc3c1=O)O2)C(=O)NS(=O)(=O)C1CC1 [(3aR,7S,10S,12R,22E,25aS)-7-cyclopentyl-N-((1R,2S)-1-{[(cyclopropylsulfonyl)amino]carbonyl}-2-vinylcyclopropyl)-5,8,19-trioxo-16-(trifluoromethyl)-1,2,3,3a,5,6,7,8,11,12,21,24,25,25a-tetradecahydro-10H,19H-9,12-methanocyclopenta[18,19][1,10,3,6,12]dioxatriazacyclononadecino[11,12-b]quinazoline-10-carboxamide] yielded a Ki of under 0.1 nM.

C=C[C@@H]1C[C@]1(NC(=O)[C@@H]1C[C@@H]2CN1C(=O)[C@H](C1CCCC1)NC(=O)O[C@@H]1CCC[C@H]1CC/C=C/Cn1c(nc3cc(-c4ccccc4)ccc3c1=O)O2)C(=O)NS(=O)(=O)C1CC1 [(3aR,7S,10S,12R,22E,25aS)-7-cyclopentyl-N-((1R,2S)-1-{[(cyclopropylsulfonyl)amino]carbonyl}-2-vinylcyclopropyl)-5,8,19-trioxo-16-phenyl-1,2,3,3a,5,6,7,8,11,12,21,24,25,25a-tetradecahydro-10H,19H-9,12-methanocyclopenta[18,19][1,10,3,6,12]dioxatriazacyclononadecino[11,12-b]quinazoline-10-carboxamide] showed a Ki of under 0.1 nM.

In the case of C=C[C@@H]1C[C@]1(NC(=O)[C@@H]1C[C@@H]2CN1C(=O)[C@H](C1CCCC1)NC(=O)O[C@@H]1CCC[C@H]1CC/C=C/Cc1c(nc3ccccn3c1=O)O2)C(=O)NS(=O)(=O)C1CC1 [(3aR,7S,10S,12R,22E,25aS)-7-cyclopentyl-N-((1R,2S)-1-{[(cyclopropylsulfonyl)amino]carbonyl}-2-vinylcyclopropyl)-5,8,20-trioxo-1,2,3,3a,5,6,7,8,11,12,21,24,25,25a-tetradecahydro-10H,20H-9,12-methanocyclopenta[r]pyrido[1′,2′:1,2]pyrimido[4,5-k][1,10,3,6]dioxadiazacyclononadecine-10-carboxamide], the Ki is reported as under 0.1 nM.

For C=C[C@@H]1C[C@]1(NC(=O)[C@@H]1C[C@@H]2CN1C(=O)[C@H](C1CCCC1)NC(=O)O[C@@H]1CCC[C@H]1CC/C=C/Cn1c(nc3cc(S(C)(=O)=O)ccc3c1=O)O2)C(=O)NS(=O)(=O)C1CC1 [(3aR,7S,10S,12R,22E,25aS)-7-cyclopentyl-N-((1R,2S)-1-{[(cyclopropylsulfonyl)amino]carbonyl}-2-vinylcyclopropyl)-16-(methylsulfonyl)-5,8,19-trioxo-1,2,3,3a,5,6,7,8,11,12,21,24,25,25a-tetradecahydro-10H,19H-9,12-methanocyclopenta[18,19][1,10,3,6,12]dioxatriazacyclononadecino[11,12-b]quinazoline-10-carboxamide], the Ki was under 0.1 nM.

C=C[C@@H]1C[C@]1(NC(=O)[C@@H]1C[C@@H]2CN1C(=O)[C@H](C1CCCC1)NC(=O)O[C@@H]1CCC[C@H]1CC/C=C/Cn1c(nc3cc(OC)ccc3c1=O)O2)C(=O)NS(=O)(=O)C1CC1 [(3aR,7S,10S,12R,22E,25aS)-7-cyclopentyl-N-((1R,2S)-1-{[(cyclopropylsulfonyl)amino]carbonyl}-2-vinylcyclopropyl)-16-methoxy-5,8,19-trioxo-1,2,3,3a,5,6,7,8,11,12,21,24,25,25a-tetradecahydro-10H,19H-9,12-methanocyclopenta[18,19][1,10,3,6,12]dioxatriazacyclononadecino[11,12-b]quinazoline-10-carboxamide] was tested, and the Ki was under 0.1 nM.

With C=C[C@@H]1C[C@]1(NC(=O)[C@@H]1C[C@@H]2CN1C(=O)[C@H](C1CCCC1)NC(=O)O[C@@H]1CCC[C@H]1CC/C=C/Cn1c(nc3cccc(OC)c3c1=O)O2)C(=O)NS(=O)(=O)C1CC1 [(3aR,7S,10S,12R,22E,25aS)-7-cyclopentyl-N-((1R,2S)-1-{[(cyclopropylsulfonyl)amino]carbonyl}-2-vinylcyclopropyl)-18-methoxy-5,8,19-trioxo-1,2,3,3a,5,6,7,8,11,12,21,24,25,25a-tetradecahydro-10H,19H-9,12-methanocyclopenta[18,19][1,10,3,6,12]dioxatriazacyclononadecino[11,12-b]quinazoline-10-carboxamide] the Ki was under 0.1 nM.

Compound CC[C@@H]1C[C@]1(NC(=O)[C@@H]1C[C@@H]2CN1C(=O)[C@H](C1CCCC1)NC(=O)O[C@@H]1CCC[C@H]1CC/C=C/Cn1c(nc3cc(Br)ccc3c1=O)O2)C(=O)NS(=O)(=O)C1CC1 [(3aR,7S,10S,12R,22E,25aS)-16-bromo-7-cyclopentyl-N-((1R,2R)-1-{[(cyclopropylsulfonyl)amino]carbonyl}-2-ethylcyclopropyl)-5,8,19-trioxo-1,2,3,3a,5,6,7,8,11,12,21,24,25,25a-tetradecahydro-10H,19H-9,12-methanocyclopenta[18,19][1,10,3,6,12]dioxatriazacyclononadecino[11,12-b]quinazoline-10-carboxamide] has a Ki of 0.1 to 0.5 nM.
